This note sets out measurements from patent publication US10617709B2, “miRNAs as novel therapeutic adjuvants and biomarkers for the prognosis and treatment of drug resistant breast cancers” (THE BOARD OF REGENTS OF THE UNIVERSITY OF TEXAS SYSTEM, priority 2012, dated 2020).

The structures appear in SMILES notation.

For the experiment, the system named is Tumor explants from TNBC patients. Briefly: Ex-vivo tumor explant model, Ki67 IHC. More on the design: species or system human. To be noted: for Ki67 levels: paclitaxel 1 μM, 48 hours. As to the method: To further establish the efficacy of these miRNAs in treating TNBC, we used ex-vivo tumor explant model. Freshly excised breast cancer tissues were dissected into 1 mm^3 specimens, placed on hydrated gelatin sponge in explant media supplemented with hydrocortisone and insulin at 37° C. in the CO2 incubator. Tumor explants from TNBC patients were treated with paclitaxel and tissues were gently removed, fixed in 10% neutral buffered formalin and processed for paraffin blocks. IHC analyses were conducted to determine the Ki67 levels. IHC of surgical specimens and explants reveal that explants retain the tissue architecture and proliferation properties of the original surgical specimen. […] FIG. 15.
Tumor explants growing on the gelatin sponge were treated with either sensitizer miRNA (75 nM) alone or paclitaxel (1 μM) alone or with miRNA (75 nM) and paclitaxel (1 μM) together. […] FIG. 16.

Consider `CC(=O)O[C@H]1C(=O)[C@@]2(C)[C@H]([C@H](OC(=O)c3ccccc3)[C@]3(O)C[C@H](OC(=O)[C@H](O)[C@@H](NC(=O)c4ccccc4)c4ccccc4)C(C)=C1C3(C)C)[C@]1(OC(C)=O)CO[C@@H]1C[C@@H]2O` [paclitaxel], for which the “response to paclitaxel (Ki67 staining)” value (advanced stage TNBC explant) was “not responsive”. Also, for the setting “non-relapsed TNBC explant”, the Ki67 staining result is reported as “inhibition of Ki67 staining”. Besides, the Ki67 levels result by setting is: (relapsed / advanced stage TNBC explants, sensitizer miRNA 75 nM) “did not result in significant change”; (responsive TNBC (early stage cancer) explants) “significant inhibition of Ki67 levels”.
